The values that follow come from patent US20260158158A1, “ANTIBODY-DRUG CONJUGATE, PREPARATION METHOD THEREFOR AND USE THEREOF” (HANGZHOU ADCORIS BIOPHARMA CO., LTD, priority 2023, published 2026).

Common to all, as to assay type: in vivo, BALB/c nude mice
In assay [1] the test system is Pancreatic cancer cell BXPC-3. The assay is described as follows: Tumor growth inhibition in BXPC-3 CDX model (nude mouse xenograft). Particulars: BIW × 3 weeks. From the text:
(§1) Method for testing tumor inhibitory activity of ADC in nude mouse xenograft model (cell-derived xenograft, CDX): Pancreatic cancer cell BXPC-3, lung adenocarcinoma cell NCI-H1975, triple-negative breast cancer cell MDA-MB-231, and esophageal squamous carcinoma cell KYSE-150 were subjected to monolayer culturing in vitro. When cell saturation reached 80%-90%, the cells were digested with trypsin-EDTA and centrifuged. The supernatant was discarded. The cells were re-suspended in PBS. The cell suspension was adjusted to an appropriate concentration. BXPC-3, NCI-H1975, MDA-MB-231, and KYSE-150 cells (2-10×10^6 cells/0.1 mL) were separately subcutaneously inoculated into BALB/c nude mice. The animals and the growth of transplanted tumors were observed regularly. When the tumor volume reached approximately 100-200 mm^3, the mice were randomly divided into groups based on tumor volume and body weight, with 6 animals per group. The animals were administered regularly via intravenous injection. Twice a week, the longer diameter a (mm) and shorter diameter b (mm) of the tumor were measured with a vernier caliper and the body weight of the mice was measured. The tumor volume (V) was calculated according to the following formula: V=½×a×b^2 (mm^3), in which a and b represented the length and width of the tumor, respectively. A growth curve was plotted. Finally, the tumor was excised and weighed. […]

In assay [2] the test system is lung adenocarcinoma cell NCI-H1975. The experiment in a line: Tumor growth inhibition in NCI-H1975 model (nude mouse xenograft). Particulars: NCI-H1975, 10 mg/kg iv, BIW × 2 weeks.
From the text: as §1

Assay [3] relates to triple-negative breast cancer cell MDA-MB-231. The assay is described as follows: Tumor growth inhibition in MDA-MB-231 CDX model (nude mouse xenograft). Particulars: 10 mg/kg iv, BIW × 3 doses.
From the text: as §1

For assay [4], the system named is esophageal squamous carcinoma cell KYSE-150. The assay is described as follows: Tumor growth inhibition in KYSE-150 CDX model (nude mouse xenograft). To be noted: 10 mg/kg iv, BIW × 2 weeks.
From the text: as §1

The structures appear in SMILES notation.

For the compound `CC[C@@]1(O)C(=O)OCc2c1cc1n(c2=O)Cc2c-1nc1cc(F)c(C)c3c1c2[C@@H](NC(=O)CONC)CC3` [Compound 10], the “Tumor inhibition on D33” value in assay [1] (0.12 mg/kg iv) was determined as 16.75%. `Nc1ccn([C@@H]2O[C@H](CO)[C@@H](O)C2(F)F)c(=O)n1` [Gemcitabine]: the “Tumor inhibition on D33” value in assay [1] (90 mg/kg iv) came to 41.52%. On to `CC(=O)O[C@H]1C(=O)[C@@]2(C)[C@H]([C@H](OC(=O)c3ccccc3)[C@]3(O)C[C@H](OC(=O)[C@H](O)[C@@H](NC(=O)c4ccccc4)c4ccccc4)C(C)=C1C3(C)C)[C@]1(OC(C)=O)CO[C@@H]1C[C@@H]2O` [Paclitaxel], for which the “Tumor inhibition on D21” value was 94.5% in assay [2] and 78.00% in assay [4]. Also, the “Tumor inhibition on D25” value in assay [3] was found to be 79.96%.
